{
  "source": "paper PMC8248988",
  "about": "“A signal capture and proofreading mechanism for the KDEL-receptor explains selectivity and dynamic range in ER retrieval” (eLife, 2021)",
  "assay_type_in_all_cases": "cell-based",
  "settings_in_all_cases": "COS-7 cells",
  "key": {"[1]": {"biological_target": "T1, human KDELR1 D50N/N54K/E117Q (Homo sapiens, UniProt P24390, D50N/E117Q/N54K)", "T1 construct": "expressed in transfected cells; host or cells: COS-7", "T1 sequence (P24390 whole entry D50N/N54K/E117Q)": "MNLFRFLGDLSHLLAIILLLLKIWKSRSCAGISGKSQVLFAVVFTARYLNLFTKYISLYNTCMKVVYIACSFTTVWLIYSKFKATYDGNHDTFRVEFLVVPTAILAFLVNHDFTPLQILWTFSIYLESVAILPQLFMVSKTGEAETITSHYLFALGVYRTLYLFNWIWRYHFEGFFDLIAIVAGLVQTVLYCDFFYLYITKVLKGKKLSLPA", "assay": "ER retrieval assay, KDELR1 D50N/N54K/E117Q-GFP (K. lactis like)", "description": "(§1) To create KDELR1-GFP and KDELR2-GFP, the reading frames for Homo sapiens KDELR1 (Uniprot: P24390) and KDELR2 (Uniprot: P33947) were cloned into the pEF5/FRT low level mammalian expression vector with a C-terminal 20 amino acid linker made up of 5 copies of Gly-Ser-Ser-Ser followed by GFP. Specific point mutations were introduced using the Quickchange protocol (Stratagene) and are described in the key resources table and figures. To create the mScarlet-KDEL^sec ligand construct, mScarlet with an N-terminal hGH signal peptide and the 16 C-terminal residues of human BiP at its C-terminus, containing the KDEL signal, was cloned into the pcDNA3.1 vector. […] The Golgi marker protein TGN46 was detected by antibody (sheep anti-TGN46 AHP500G; AbD Serotec) and an Alexa 647 conjugated secondary anti-sheep secondary (A-21448, Invitrogen). In Figure 1d and e, endogenous KDELR was detected by antibody (mouse anti-KDELR ADI-VAA-PT048; Enzo Life Sciences) and Alexa 488 conjugated anti-mouse secondary antibody (A-21202, Invitrogen). For retrieval assays in other figures, KDELR-GFP fusion proteins were directly detected by fluorescence. The mScarlet-xDEL fusion proteins were directly detected by fluorescence. […] The fraction of KDEL receptor in the Golgi apparatus was calculated by dividing the Golgi signal by the total cell signal. […]"}, "[2]": {"biological_target": "T2, human KDELR1 E117N (Homo sapiens, UniProt P24390, E117N)", "T2 construct": "expressed in transfected cells; host or cells: COS-7", "T2 sequence (P24390 whole entry E117N)": "as the sequence (P24390 whole entry D50N/N54K/E117Q) above, with N50D, K54N, Q117N counted along it", "assay": "ER retrieval assay, KDELR1 E117N-GFP", "description": "as §1"}, "[3]": {"biological_target": "T3, human KDELR1 D50N (Homo sapiens, UniProt P24390, D50N)", "T3 construct": "expressed in transfected cells; host or cells: COS-7", "T3 sequence (P24390 whole entry D50N)": "as the sequence (P24390 whole entry D50N/N54K/E117Q) above, with K54N, Q117E counted along it", "assay": "ER retrieval assay, KDELR1 D50N-GFP", "description": "as §1"}, "[4]": {"biological_target": "T4, human KDELR1 N54K (Homo sapiens, UniProt P24390, N54K)", "T4 construct": "expressed in transfected cells; host or cells: COS-7", "T4 sequence (P24390 whole entry N54K)": "as the sequence (P24390 whole entry D50N/N54K/E117Q) above, with N50D, Q117E counted along it", "assay": "ER retrieval assay, KDELR1 N54K-GFP", "description": "as §1"}},
  "data": [
    {"substance": "ADEL [pcDNA3.1 hGHss-mScarlet-H. sapiens BiP639-654K651A (ADEL^SEC), secreted mScarlet fusion with human BiP C-terminus, ADEL signal]", "values": [
      {"measurement": "ligand-induced receptor retrieval to the ER (in words)", "setting": "[1]", "value": "improved the response"},
      {"measurement": "ligand-induced receptor retrieval to the ER (in words)", "setting": "[2]", "value": "move to the ER"},
      {"measurement": "ligand-induced receptor retrieval to the ER (in words)", "setting": "[3]", "value": "abolished the response to all signal variants"},
      {"measurement": "ligand-induced receptor retrieval to the ER (in words)", "setting": "[4]", "value": "did not result in ADEL or DDEL recognition"}
    ]}
  ]
}
